Literature values, collected in USRE42412E1, “Materials and methods for the treatment of gastroesophageal reflux disease” (ARYx Therapeutics, Inc., priority 2000, dated 2011).

Key:
[1] = of a dose of cisapride
5HT4 receptors = 5HT4 receptors (Homo sapiens, UniProt Q13639)
[2] = between July 1993 and December 1999

Sequence of 5HT4 receptors (Q13639 whole entry): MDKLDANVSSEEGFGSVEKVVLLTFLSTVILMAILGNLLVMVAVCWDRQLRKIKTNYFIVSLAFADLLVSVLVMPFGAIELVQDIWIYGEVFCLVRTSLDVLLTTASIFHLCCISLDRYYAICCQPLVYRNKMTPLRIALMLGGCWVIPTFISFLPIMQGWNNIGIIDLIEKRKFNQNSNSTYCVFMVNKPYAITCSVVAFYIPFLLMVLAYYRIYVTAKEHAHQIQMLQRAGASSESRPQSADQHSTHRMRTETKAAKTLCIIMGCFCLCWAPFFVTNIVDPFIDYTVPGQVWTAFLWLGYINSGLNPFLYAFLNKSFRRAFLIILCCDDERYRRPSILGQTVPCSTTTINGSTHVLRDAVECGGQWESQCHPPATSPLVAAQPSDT

For `COc1cc(N)c(Cl)cc1C(=O)NC1CCN(CCCOc2ccc(F)cc2)CC1OC` (stereo not shown) [cisapride], the “fraction of dose metabolized by oxidative N-dealkylation at the piperidine nitrogen or aromatic hydroxylation” value [1] is listed as “More than 90%”, the “ligand potency at 5HT4 receptors” value (5HT4 receptors) is listed as “potent ligand” and the deaths reported [2] is listed as 80. For the same compound, the “serious cardiac arrhythmias reportedly associated” value ([2]; ventricular tachycardia, ventricular fibrillation, torsades de pointes, QT prolongation) was “at least 341”.
